Results published in PubChem BioAssay AID2060889 (Molecular Pharmacology Branch, DTP, NCI, 2025).

Tested on: LG0567-F671-PDC complex spheroids viability
Assay: Anticancer human tumor LG0567-F671-PDC patient-derived lung adenocarcinoma cell line growth inhibition [RAS]
Settings: for viability, T/C: stronger effect = lower value
In short: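 Tumour cells grown as complex spheroids with HUVEC endothelial cells and mesenchymal stem cells, treated with RAS pathway inhibitor combinations. Each agent spans half-log steps from near clinical Cmax, or 10 microM where Cmax is unknown.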

[1] = curve of first compound, second compound 0.000949 µM
[2] = curve of first compound, second compound 0.003 µM
[3] = curve of first compound, second compound 0.00949 µM
[4] = curve of first compound, second compound 0.03 µM
[5] = curve of first compound, second compound 0.0949 µM
[6] = curve of first compound, second compound 0.3 µM
[7] = second compound 0.000949 µM, first compound 0.0316 µM
[8] = second compound 0.000949 µM, first compound 0.1 µM
[9] = second compound 0.000949 µM, first compound 0.316 µM
[10] = second compound 0.000949 µM, first compound 1 µM
[11] = second compound 0.000949 µM, first compound 3.16 µM
[12] = second compound 0.000949 µM, first compound 10 µM
[13] = second compound 0.003 µM, first compound 0.0316 µM
[14] = second compound 0.003 µM, first compound 0.1 µM
[15] = second compound 0.003 µM, first compound 0.316 µM
[16] = second compound 0.003 µM, first compound 1 µM
[17] = second compound 0.003 µM, first compound 3.16 µM
[18] = second compound 0.003 µM, first compound 10 µM
[19] = second compound 0.00949 µM, first compound 0.0316 µM
[20] = second compound 0.00949 µM, first compound 0.1 µM
[21] = second compound 0.00949 µM, first compound 0.316 µM
[22] = second compound 0.00949 µM, first compound 1 µM
[23] = second compound 0.00949 µM, first compound 3.16 µM
[24] = second compound 0.00949 µM, first compound 10 µM
[25] = second compound 0.03 µM, first compound 0.0316 µM
[26] = second compound 0.03 µM, first compound 0.1 µM
[27] = second compound 0.03 µM, first compound 0.316 µM
[28] = second compound 0.03 µM, first compound 1 µM
[29] = second compound 0.03 µM, first compound 3.16 µM
[30] = second compound 0.03 µM, first compound 10 µM
[31] = second compound 0.0949 µM, first compound 0.0316 µM
[32] = second compound 0.0949 µM, first compound 0.1 µM
[33] = second compound 0.0949 µM, first compound 0.316 µM
[34] = second compound 0.0949 µM, first compound 1 µM
[35] = second compound 0.0949 µM, first compound 3.16 µM
[36] = second compound 0.0949 µM, first compound 10 µM
[37] = second compound 0.3 µM, first compound 0.0316 µM
[38] = second compound 0.3 µM, first compound 0.1 µM
[39] = second compound 0.3 µM, first compound 0.316 µM
[40] = second compound 0.3 µM, first compound 1 µM
[41] = second compound 0.3 µM, first compound 3.16 µM
[42] = second compound 0.3 µM, first compound 10 µM
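Also: spheroids exposed to compound for seven days before readout.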
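For IC50 in this document: luminescence signal used as a proxy for viable cells.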

Cc1nc(N2CCC3(CC2)COC(C)C3N)c(CO)nc1Sc1ccnc(N)c1Cl (stereo not drawn) + CCn1c(-c2cc(N3CCN(C)CC3)cnc2C(C)OC)c2c3cc(ccc31)-c1csc(n1)CC(NC(=O)C1CC1C)C(=O)N1CCCC(N1)C(=O)OCC(C)(C)C2
IC50 [1]: < 31.6 nM | IC50 [2]: < 31.6 nM | IC50 [3]: < 31.6 nM | IC50 [4]: < 31.6 nM | IC50 [5]: < 31.6 nM | IC50 [6]: < 31.6 nM | viability, T/C [7]: 13.4% | viability, T/C [8]: 9.61% | viability, T/C [9]: 5.09% | viability, T/C [10]: 3.4% | viability, T/C [11]: 2.1% | viability, T/C [12]: 1.79% | viability, T/C [13]: 6.69% | viability, T/C [14]: 5.75% | viability, T/C [15]: 2.58% | viability, T/C [16]: 2.04% | viability, T/C [17]: 1.52% | viability, T/C [18]: 1.27% | viability, T/C [19]: 3.68% | viability, T/C [20]: 3.22% | viability, T/C [21]: 1.87% | viability, T/C [22]: 1.37% | viability, T/C [23]: 1.14% | viability, T/C [24]: 1.07% | viability, T/C [25]: 2.35% | viability, T/C [26]: 1.85% | viability, T/C [27]: 1.58% | viability, T/C [28]: 1.41% | viability, T/C [29]: 1.06% | viability, T/C [30]: 0.91% | viability, T/C [31]: 2.09% | viability, T/C [32]: 1.47% | viability, T/C [33]: 1.37% | viability, T/C [34]: 0.88% | viability, T/C [35]: 0.94% | viability, T/C [36]: 0.69% | viability, T/C [37]: 1.86% | viability, T/C [38]: 1.2% | viability, T/C [39]: 0.98% | viability, T/C [40]: 0.98% | viability, T/C [41]: 0.68% | viability, T/C [42]: 0.66%

CCc1c2c(nc3ccc(O)cc13)-c1cc3c(c(=O)n1C2)COC(=O)[C@]3(O)CC + C#Cc1c(F)ccc2cc(O)cc(-c3ncc4c(N5CC6CCC(C5)N6)nc(OCC56CCCN5CC(F)C6)nc4c3F)c12
IC50 (curve of first compound, second compound 0.0316 µM): 16.1 nM | IC50 (curve of first compound, second compound 0.1 µM): 11.7 nM | IC50 (curve of first compound, second compound 0.316 µM): 2.33 nM | IC50 (curve of first compound, second compound 1 µM): < 0.949 nM | IC50 (curve of first compound, second compound 3.16 µM): < 0.949 nM | IC50 (curve of first compound, second compound 10 µM): < 0.949 nM | viability, T/C (second compound 0.0316 µM, first compound 0.000949 µM): 82.4% | viability, T/C (second compound 0.0316 µM, first compound 0.003 µM): 67.4% | viability, T/C (second compound 0.0316 µM, first compound 0.00949 µM): 56.8% | viability, T/C (second compound 0.0316 µM, first compound 0.03 µM): 44.4% | viability, T/C (second compound 0.0316 µM, first compound 0.0949 µM): 23.6% | viability, T/C (second compound 0.0316 µM, first compound 0.3 µM): 6.15% | viability, T/C (second compound 0.1 µM, first compound 0.000949 µM): 73.3% | viability, T/C (second compound 0.1 µM, first compound 0.003 µM): 61% | viability, T/C (second compound 0.1 µM, first compound 0.00949 µM): 54.8% | viability, T/C (second compound 0.1 µM, first compound 0.03 µM): 38.6% | viability, T/C (second compound 0.1 µM, first compound 0.0949 µM): 22.4% | viability, T/C (second compound 0.1 µM, first compound 0.3 µM): 7.9% | viability, T/C (second compound 0.316 µM, first compound 0.000949 µM): 50.4% | viability, T/C (second compound 0.316 µM, first compound 0.003 µM): 53.3% | viability, T/C (second compound 0.316 µM, first compound 0.00949 µM): 41% | viability, T/C (second compound 0.316 µM, first compound 0.03 µM): 29.8% | viability, T/C (second compound 0.316 µM, first compound 0.0949 µM): 20.3% | viability, T/C (second compound 0.316 µM, first compound 0.3 µM): 7.35% | viability, T/C (second compound 1 µM, first compound 0.000949 µM): 30.5% | viability, T/C (second compound 1 µM, first compound 0.003 µM): 29.1% | viability, T/C (second compound 1 µM, first compound 0.00949 µM): 26.7% | viability, T/C (second compound 1 µM, first compound 0.03 µM): 20.9% | viability, T/C (second compound 1 µM, first compound 0.0949 µM): 13.9% | viability, T/C (second compound 1 µM, first compound 0.3 µM): 6.24% | viability, T/C (second compound 3.16 µM, first compound 0.000949 µM): 20% | viability, T/C (second compound 3.16 µM, first compound 0.003 µM): 15.3% | viability, T/C (second compound 3.16 µM, first compound 0.00949 µM): 15.6% | viability, T/C (second compound 3.16 µM, first compound 0.03 µM): 11.2% | viability, T/C (second compound 3.16 µM, first compound 0.0949 µM): 8.88% | viability, T/C (second compound 3.16 µM, first compound 0.3 µM): 4.31% | viability, T/C (second compound 10 µM, first compound 0.000949 µM): 11% | viability, T/C (second compound 10 µM, first compound 0.003 µM): 10% | viability, T/C (second compound 10 µM, first compound 0.00949 µM): 10.1% | viability, T/C (second compound 10 µM, first compound 0.03 µM): 6.59% | viability, T/C (second compound 10 µM, first compound 0.0949 µM): 4.97% | viability, T/C (second compound 10 µM, first compound 0.3 µM): 3.6%

CCN1CCN(Cc2ccc(Nc3ncc(F)c(-c4cc(F)c5nc(C)n(C(C)C)c5c4)n3)nc2)CC1
viability, T/C (compound 0.00316 µM): 94.3% [middle of 4 runs] | viability, T/C (compound 0.01 µM): 85% [middle of 4 runs] | viability, T/C (compound 0.0316 µM): 82.3% [middle of 4 runs] | viability, T/C (compound 0.1 µM): 80.7% [middle of 4 runs] | viability, T/C (compound 0.316 µM): 75.6% [middle of 4 runs] | viability, T/C (compound 1 µM): 67% [middle of 4 runs] | IC50 (curve of compound): > 1000 nM

NC1c2ccccc2OC12CCN(c1cnc3c(N4CCCc5ncccc54)n[nH]c3n1)CC2 (stereo not drawn) + CCn1c(-c2cccnc2C(C)OC)c2c3cc(ccc31)N1CCOC(CC(NC(=O)C(C(C)C)N(C)C(=O)C3(F)CCN(C(=O)C#CC(C)(C)N(C)C)CC3)C(=O)N3CCCC(N3)C(=O)OCC(C)(C)C2)C1
IC50 [1]: < 31.6 nM | IC50 [2]: < 31.6 nM | IC50 [3]: < 31.6 nM | IC50 [4]: < 31.6 nM | IC50 [5]: < 31.6 nM | IC50 [6]: < 31.6 nM | viability, T/C [7]: 4.75% | viability, T/C [8]: 4.54% | viability, T/C [9]: 2.82% | viability, T/C [10]: 2.6% | viability, T/C [11]: 3.24% | viability, T/C [12]: 2.18% | viability, T/C [13]: 5.7% | viability, T/C [14]: 4.2% | viability, T/C [15]: 3.08% | viability, T/C [16]: 2.79% | viability, T/C [17]: 2.89% | viability, T/C [18]: 3% | viability, T/C [19]: 6.21% | viability, T/C [20]: 3.69% | viability, T/C [21]: 3.15% | viability, T/C [22]: 2.2% | viability, T/C [23]: 1.99% | viability, T/C [24]: 1.74% | viability, T/C [25]: 4.82% | viability, T/C [26]: 4.27% | viability, T/C [27]: 2.5% | viability, T/C [28]: 1.95% | viability, T/C [29]: 1.88% | viability, T/C [30]: 2.47% | viability, T/C [31]: 4.25% | viability, T/C [32]: 3.02% | viability, T/C [33]: 2.73% | viability, T/C [34]: 1.84% | viability, T/C [35]: 1.66% | viability, T/C [36]: 1.44% | viability, T/C [37]: 3.31% | viability, T/C [38]: 2.55% | viability, T/C [39]: 1.71% | viability, T/C [40]: 1.65% | viability, T/C [41]: 1.27% | viability, T/C [42]: 2.62%
